Source: ChEMBL document CHEMBL1201862, “PubChem BioAssay data set” (2004)
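Following 48 hours of exposure in 96-well plates, responses at five concentrations were used to interpolate endpoints linearly. Here, GI50 denotes the concentration required for 50% inhibition of growth.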 The source made the active and inactive calls. No stated cut-off is given here; in the data, active = GI50 up to about 1.1 µM and inactive = higher.

What was measured:
Assay in all cases: NCI-60 cell line screen, 48 h
T47D = tested on: T47D
SK-MEL-2 = tested on: SK-MEL-2
UO-31 = tested on: UO-31
NCI-H522 = tested on: NCI-H522
COLO 205 = tested on: COLO 205
ACHN = tested on: ACHN
DU-145 = tested on: DU-145
SK-OV-3 = tested on: SK-OV-3
A549 = tested on: A549
SNB-75 = tested on: SNB-75
NCI-H23 = tested on: NCI-H23
NCI-H226 = tested on: NCI-H226
LOX IMVI = tested on: LOX IMVI
SK-MEL-28 = tested on: SK-MEL-28
NCI/ADR-RES = tested on: NCI/ADR-RES
NCI-H460 = tested on: NCI-H460
SK-MEL-5 = tested on: SK-MEL-5
TK-10 = tested on: TK-10
OVCAR-4 = tested on: OVCAR-4
PC-3 = tested on: PC-3
MDA-MB-231 = tested on: MDA-MB-231
Malme-3M = tested on: Malme-3M
HT-29 = tested on: HT-29
OVCAR-8 = tested on: OVCAR-8
HCC 2998 = tested on: HCC 2998
SF-539 = tested on: SF-539
786-0 = tested on: 786-0
RXF 393 = tested on: RXF 393
OVCAR-3 = tested on: OVCAR-3
RPMI-8226 = tested on: RPMI-8226
SF-268 = tested on: SF-268
HCT-116 = tested on: HCT-116
Hs-578T = tested on: Hs-578T
HCT-15 = tested on: HCT-15
HOP-92 = tested on: HOP-92
MDA-N = tested on: MDA-N
SNB-19 = tested on: SNB-19
SF-295 = tested on: SF-295
KM12 = tested on: KM12
MOLT-4 = tested on: MOLT-4
HOP-62 = tested on: HOP-62
MDA-MB-435 = tested on: MDA-MB-435
CCRF-CEM = tested on: CCRF-CEM
CAKI-1 = tested on: CAKI-1
SW-620 = tested on: SW-620
M14 = tested on: M14
SN12C = tested on: SN12C
IGROV-1 = tested on: IGROV-1
MCF7 = tested on: MCF7
A498 = tested on: A498
OVCAR-5 = tested on: OVCAR-5
UACC-62 = tested on: UACC-62
K562 = tested on: K562
HL-60 = tested on: HL-60
UACC-257 = tested on: UACC-257
EKVX = tested on: EKVX
U-251 = tested on: U-251
SR = tested on: SR

In the case of `COc1ccc(/C(C#N)=C/c2ccc(OC)c(OC)c2)cc1`, the GI50 (T47D) was 49.5 µM (inactive), the GI50 (SK-MEL-2) was > 100 µM (inactive) and the GI50 (UO-31) was > 100 µM (inactive). The GI50 (NCI-H522) was > 100 µM (inactive), the GI50 (COLO 205) was > 100 µM (inactive) and the GI50 (ACHN) was > 100 µM (inactive). The GI50 (DU-145) was > 100 µM (inactive), the GI50 (SK-OV-3) was > 100 µM (inactive) and the GI50 (A549) was > 100 µM (inactive). For the same molecule, the GI50 (SNB-75) was 56.9 µM (inactive), the GI50 (NCI-H23) was > 100 µM (inactive) and the GI50 (NCI-H226) was > 100 µM (inactive). For the same molecule, the GI50 (LOX IMVI) was > 100 µM (inactive), the GI50 (SK-MEL-28) was > 100 µM (inactive) and the GI50 (NCI/ADR-RES) was > 100 µM (inactive). For the same molecule, the GI50 (NCI-H460) was > 100 µM (inactive), the GI50 (SK-MEL-5) was > 100 µM (inactive) and the GI50 (TK-10) was > 100 µM (inactive). For the same molecule, the GI50 (OVCAR-4) was 69.8 µM (inactive), the GI50 (PC-3) was > 100 µM (inactive) and the GI50 (MDA-MB-231) was > 100 µM (inactive). The GI50 (Malme-3M) was > 100 µM (inactive), the GI50 (HT-29) was > 100 µM (inactive) and the GI50 (OVCAR-8) was > 100 µM (inactive). For the same molecule, the GI50 (HCC 2998) was 59 µM (inactive), the GI50 (SF-539) was > 100 µM (inactive) and the GI50 (786-0) was > 100 µM (inactive). The GI50 (RXF 393) was > 100 µM (inactive), the GI50 (OVCAR-3) was > 100 µM (inactive) and the GI50 (RPMI-8226) was > 100 µM (inactive). For the same molecule, the GI50 (SF-268) was > 100 µM (inactive), the GI50 (HCT-116) was > 100 µM (inactive) and the GI50 (Hs-578T) was > 100 µM (inactive). For the same molecule, the GI50 (HCT-15) was 37.2 µM, the GI50 (HOP-92) was > 100 µM (inactive) and the GI50 (MDA-N) was > 100 µM (inactive). The GI50 (SNB-19) was > 100 µM (inactive), the GI50 (SF-295) was > 100 µM (inactive) and the GI50 (KM12) was > 100 µM (inactive). For the same molecule, the GI50 (MOLT-4) was > 100 µM (inactive), the GI50 (HOP-62) was > 100 µM (inactive) and the GI50 (MDA-MB-435) was 83.4 µM (inactive). The GI50 (CCRF-CEM) was > 100 µM (inactive), the GI50 (CAKI-1) was > 100 µM (inactive) and the GI50 (SW-620) was > 100 µM (inactive). For the same molecule, the GI50 (M14) was > 100 µM (inactive), the GI50 (SN12C) was > 100 µM (inactive) and the GI50 (IGROV-1) was > 100 µM (inactive). The GI50 (MCF7) was > 100 µM (inactive), the GI50 (A498) was > 100 µM (inactive) and the GI50 (OVCAR-5) was > 100 µM (inactive). For the same molecule, the GI50 (UACC-62) was > 100 µM (inactive), the GI50 (K562) was > 100 µM (inactive) and the GI50 (HL-60) was > 100 µM (inactive). The GI50 (UACC-257) was > 100 µM (inactive), the GI50 (EKVX) was > 100 µM (inactive) and the GI50 (U-251) was > 100 µM (inactive).
For `CC(C)(C)COC(=O)C(C)(C)NC(=O)C(CC(=O)OCc1ccccc1)NC(=O)OCc1ccccc1` (stereo not given), the GI50 (T47D) was 20.2 µM (inactive), the GI50 (SK-MEL-2) was 49 µM (inactive) and the GI50 (UO-31) was 24 µM (inactive). The GI50 (NCI-H522) was 24 µM (inactive), the GI50 (COLO 205) was 21 µM (inactive) and the GI50 (ACHN) was 32.9 µM (inactive). For the same molecule, the GI50 (DU-145) was 62.2 µM (inactive), the GI50 (SK-OV-3) was 35.4 µM (inactive) and the GI50 (A549) was 29.7 µM (inactive). For the same molecule, the GI50 (SNB-75) was 13.9 µM (inactive), the GI50 (NCI-H23) was 26.7 µM (inactive) and the GI50 (NCI-H226) was 29.2 µM (inactive). The GI50 (LOX IMVI) was 43.5 µM (inactive), the GI50 (SK-MEL-28) was > 100 µM (inactive) and the GI50 (NCI/ADR-RES) was 36.8 µM (inactive). The GI50 (NCI-H460) was 30 µM (inactive), the GI50 (SK-MEL-5) was 11.1 µM (inactive) and the GI50 (TK-10) was 19.4 µM (inactive). For the same molecule, the GI50 (OVCAR-4) was 50.5 µM (inactive), the GI50 (PC-3) was 25.7 µM (inactive) and the GI50 (MDA-MB-231) was 42.9 µM (inactive). The GI50 (Malme-3M) was 29.6 µM (inactive), the GI50 (HT-29) was 24.8 µM (inactive) and the GI50 (OVCAR-8) was 40.1 µM (inactive). The GI50 (HCC 2998) was 35.3 µM (inactive), the GI50 (SF-539) was 25.1 µM (inactive) and the GI50 (786-0) was > 100 µM (inactive). For the same molecule, the GI50 (RXF 393) was > 100 µM (inactive), the GI50 (OVCAR-3) was 41.4 µM (inactive) and the GI50 (RPMI-8226) was 26.5 µM (inactive). The GI50 (SF-268) was 87.1 µM (inactive), the GI50 (HCT-116) was 32.7 µM (inactive) and the GI50 (Hs-578T) was 27.9 µM (inactive). For the same molecule, the GI50 (HCT-15) was 25.6 µM, the GI50 (HOP-92) was 53.1 µM (inactive) and the GI50 (MDA-N) was 30.9 µM (inactive). The GI50 (SNB-19) was 38.3 µM (inactive), the GI50 (SF-295) was 34.4 µM (inactive) and the GI50 (KM12) was 35.2 µM (inactive). For the same molecule, the GI50 (MOLT-4) was 17.6 µM (inactive), the GI50 (HOP-62) was 75 µM (inactive) and the GI50 (MDA-MB-435) was 25.8 µM (inactive). The GI50 (CCRF-CEM) was 25.3 µM (inactive), the GI50 (CAKI-1) was 58.2 µM (inactive) and the GI50 (SW-620) was 60.4 µM (inactive). For the same molecule, the GI50 (M14) was 32.1 µM (inactive), the GI50 (SN12C) was 25.6 µM (inactive) and the GI50 (IGROV-1) was 61 µM (inactive). For the same molecule, the GI50 (MCF7) was 32.4 µM (inactive), the GI50 (A498) was 28.2 µM (inactive) and the GI50 (OVCAR-5) was 26.8 µM (inactive). The GI50 (UACC-62) was 19.5 µM (inactive), the GI50 (SR) was 25.5 µM (inactive) and the GI50 (K562) was 30.1 µM (inactive). The GI50 (HL-60) was 46.5 µM (inactive), the GI50 (UACC-257) was 25.5 µM (inactive) and the GI50 (EKVX) was 54.3 µM (inactive). For the same molecule, the GI50 (U-251) was 31.5 µM (inactive).
